Data published in patent publication US11939398B2, “Modified peptides for use in treating neurodegenerative disorders” (Neuro-Bio Ltd, priority 2016, dated 2024).
Entries after “also recorded” stand apart in the source; their conditions may differ. Where a SMILES comes first, the peptide text is derived from it. [ ]: non-standard residue; d: D form. Bpa = N[C@@H](Cc1ccc(C(=O)c2ccccc2)cc1)C(=O)O; Phe(4-NH2) = Nc1ccc(C[C@H](N)C(=O)O)cc1; 2Nal = N[C@@H](Cc1ccc2ccccc2c1)C(=O)O; hArg = N=C(N)NCCCC[C@H](N)C(=O)O

What was measured:
[1] = stability / degradation in human blood; assay type: in vitro ADME
Method: (§1) Test compounds were spiked at 10 μg/ml into either PBS or blood (Male Wistar rat or Human) diluted with PBS, and a series of samples taken according to the following scheme:
(§2) Procaine, a compound known to be unstable in blood, was included as a positive control (ran with 5-fold diluted blood only). The sampling procedure was to add an aliquot to ice-cold acetonitrile, centrifuge, and store the supernatant on dry ice until analysis. Analysis by UHPLC-TOF mass spectrometry using electrospray ionisation was performed on the same day as the incubations were performed.

[2] = stability / degradation in rat blood; assay type: in vitro ADME; details: for stability in blood / degradants detected: rat blood diluted with PBS; for degradants detected: UHPLC-TOF MS
Method: as §1, §2

PC12 cells [3] = assay: Calcium fluorometry (Fluo-8, PNU282987-induced calcium increase) in PC12 cells; assay type: cell-based; details: in conjunction with T30, PC12 cells
Method: PC12 cells were plated in 200 μl of Dulbecco's Modified Eagle's medium (DMEM) plus 2 mM of L-glutamine medium the day before the experiment in 96 well plates. On the day of the experiment, the Fluo-8 solution (Abcam) was prepared as described by the provider by adding 20 μl of Fluo-8 in the assay buffer that contains 9 ml of Hank's Balanced Salt Solution (HBSS) and 1 ml of pluronic F127 Plus. Subsequently, 100 μl of growth medium was removed and 100 μl of Fluo-8 solution were added. Treatments with T30 in conjunction with NBP14 or Tri peptides were added and incubated for 30 minutes in the incubator and 30 minutes room temperature. After 1 h, the plate was placed in the fluorescence plate reader (Fluostar, Optima, BMG Labtech, Ortenberg, Germany). Before reading the fluorescence, PNU282987 1 μM, an alpha7 specific agonist of the nicotinic receptors, was prepared and placed in the Fluostar injector. For each well, the reading was formed by a basal fluorescence reading followed by PNU282987 injection that induced an increase of calcium via nicotinic receptors.
In each of the different cell techniques, the statistics analysis was performed with the average of the percentage values of 3 or more experiments. Comparisons between multiple treatment groups and the same control were performed by one-way analysis of variance (ANOVA) and Tukey's post-hoc tests using GraphPAD Instat (GraphPAD software, San Diego, California). Statistical significance was taken at a p value<0.05.

[4] = system: rat basal forebrain slices; assay: voltage-sensitive dye imaging (VSDI) on brain slices, Example 7; assay type: cell-based
Method: Brain slices were prepared as in Example 5.
Slices were placed in a dark, high humidity chamber filled with aCSF bubbling with 95% O2e5% CO2. Once there, the dye solution (4% 0.2 mM styryl dye pyridinium 4-[2-[6-(dibutylamino)-2-aphthalenyl]-ethenyl]-1-(3-sulfopropyl)hydroxide (Di-4-ANEPPS, Invitrogen, Paisley, UK) (Tominaga et al., 2000) in aCSF 48%, fetal bovine serum 48%, DMSO 3.5% and cremophore EL 0.4%) was applied to the slices for 20-25 min before being transferred to an aCSF bubbler pot (room temperature, 22 C+/−1.5 C) for 1 h to wash off excess dye and recover.
When starting VSD recordings, slices were placed in the recording bath on a small piece of filter paper to keep slice alive and was weighed down appropriately using a home-made plastic grid placed atop the slice. The perfusing bath solution was heated to 30+/−1 C by a stage heater. A concentric bipolar stimulating electrode (FHC, Maine, US) was placed in the ventral diagonal band of the basal forebrain with stimulation being set at 30 V. For acquiring of VSD data, 16-bit images were recorded with 1 ms resolution with a digital camera (Brain Vision MiCAM Ultima R3-V20 Master) with Ultima 2004/08 imaging software (Brain Vision) coupled to Spike 2 V6.0 (CED Ltd, Cambridge, UK) which was used to trigger stimulations with respect to appropriate ISI. […]

PC12 cells [5] = assay: AChE activity assay (Ellman reagent) in PC12 cells treated with T30; assay type: cell-based; details: combined with T30 (1 μM)
Method: AChE activity was measured using the Ellman reagent that measures the presence of thiol groups as a result of AChE activity. In the case of the G4 experiment, AChE (G4) activity was tested alone and also together with either NBP14 or Tri peptides. PC12 cells were plated the day before the experiment as for the cell viability assay. Cells were treated with T30 (1 μM) alone or combined with NBP14 or Tri peptide (0.5 μM). After treatment, supernatant (perfusate) of each treatment was collected and 25 μL from each condition were added to a new flat bottomed 96 well plate followed by the addition of 175 μl of Ellman reagent (Solution A: KH2PO4 139 mM and K2HPO4 79.66 mM, pH 7.0; solution B (substrate): Acetylthiocholine Iodide 11.5 mM; Solution C (Reagent): 5,5′-dithiobis(2-nitrobenzoic acid) 8 mM and NaHCO3 15 mM). The Ellman reagent was prepared as a mixture of the 3 solutions in a ratio 33(A):3(B):4(C). Absorbance measurements were taken for an interval of 60 minutes across experiments at 405 nm in a Vmax plate reader (Molecular devices, Wokingham, UK).
In each of the different cell techniques, the statistics analysis was performed with the average of the percentage values of 3 or more experiments. […]

[6] = system: rat basal forebrain slices; assay: voltage-sensitive dye imaging (VSDI) on brain slices, Example 5; assay type: cell-based
Method: Male Wistar rats (14 days old) were anaesthetised using isoflurane (˜15 ml, 100% w/w). Isoflurane was applied to the cotton bed at the bottom of an anaesthetic chamber (glass box 20×15×15 cm) where rats were then placed for approximately 45 s until complete anaesthesia was reached. The hind paw of each anaesthetised rat was pinched to check for the appropriate depth of anaesthesia. Upon confirmation of anaesthesia, rats were quickly decapitated, with the brain being quickly removed and immersed in ice cold oxygenated ‘slicing’ artificial cerebrospinal fluid (aCSF in mmol: 120 NaCl, 5 KCL, 20 NaHCO3, 2.4 CaCl2 2 MgSO4, 1.2 KH2PO4, 10 glucose, 6.7 HEPES salt and 3.3 HEPES acid; pH=7.1). Coronal slices (400 μm thick) were then taken from a block of brain containing the basal forebrain, namely the MS-dBB complex (between +9.20 and +9.48 mm Interaural and +0.48 and +0.2 mm Bregma, FIG. 4A) and the somatosensory barrel field cortex (SiBF, between +8.08 and +7.20 mm Interaural and −0.92 mm and −1.80 mm Bregma) (Paxinos and Watson, 1998) using a Vibratome (Leica VTi000S).
Slices were then transferred to a bubbler pot containing oxygenated aCSF at room temperature (recording aCSF in mmol: 124 NaCl, 5 KCL, 20 NaHCO3, 2.4 CaCl2 2 MgSO4, 1.3 KH2PO4, 10 glucose; pH=7.4) which was identical to that used in VSDI (voltage sensitive dye imaging) recording. Slices were then left for approximately 1-1.5 hours before preparing them for VSD staining.
Slices were placed in a dark, high humidity chamber filled with aCSF bubbled with 95% O2, 5% CO2. Once there, the dye solution (4% 0.2 mM styryl dye pyridinium 4-[2-[6-(dibutylamino)-2-napthalenyl]-ethenyl]-1-(3-sulfopropyl)hydroxide (Di-4-NEPPS), Invitrogen, Paisley, UK in 48% aCSF, 48% foetal bovine serum, 3.5% DMSO and 0.4% cremophore EL) (Tominaga et al., 2000) was applied to the slices for 20-25 minutes before being transferred back to a bubbler pot containing oxygenated aCSF kept at room temperature for 30 minutes.
When starting the VSDI recordings, slices were placed in the recording bath on a small piece of filter paper to allow the flow of oxygenated aCSF on the underside of the slice and in order to keep it alive. The slice was then weighed down by a home-made plastic grid that was placed on top of the slice. […] For the acquisition of VSD data, 2 dimensional images, equivalent to 88×60 pixels, were recorded using the MiCamo2 High Resolution camera (Brain Vision, Japan) with BV_Analyze imaging software. […] Light was generated using an Osram halogen xenophot 64634 HLX EFR Display/Optic lamp and was filtered to emit green (530±10 nm) light using a MHF-G150LR (Moritex Corporation) coupled to the MiCamo2 High resolution imaging system and filtered the emitted fluorescence through a >590 nm high pass filter. […]

[7] = human blood diluted with PBS, 10 μg/ml, up to 60 min

| Structure (SMILES) | turnover ([1]; 5-fold diluted human blood, 10 μg/ml, up to 60 min) [%] | turnover ([2]; 5-fold diluted rat blood, 10 μg/ml, up to 60 min) [%] | protection against T30-induced calcium influx (PC12 cells [3]) | effect on T30-induced inhibition of basal forebrain activity ([4]; 2 μM Tri04 co-perfused with 2 μM T30, n=29) | effect on T30-induced inhibition of basal forebrain activity ([4]; 4 μM Tri04 co-perfused with 2 μM T30, n=20) | stability in blood [1, 7] | stability in blood ([2]; 10 μg/ml, up to 60 min) | degradants detected [2] | protection against T30-induced AChE activity (PC12 cells [5]) | degradants detected ([1]; human blood diluted with PBS, UHPLC-TOF MS) | blocking of T30-induced deviations from baseline (VSDI) ([6]; 4 μM co-perfused with T30 (2 uM)) | change in magnitude (summed fluorescence) of evoked responses, compound alone ([6]; 4 μM in perfusate, no T30) |
| --- | --- | --- | --- | --- | --- | --- | --- | --- | --- | --- | --- | --- |
| CCN(CC)CCOC(=O)c1ccc(N)cc1 [Procaine, reference compound] | 100 | 60 |  |  |  |  |  |  |  |  |  |  |
| CC(=O)N[C@@H](Cc1ccc(C(=O)c2ccccc2)cc1)C(=O)N[C@@H](CCCCNC(=N)N)C(=O)N[C@@H](Cc1ccc(N)cc1)C(N)=O [Tri04, 4-((S)-2-((S)-2-((S)-2-acetamido-3-(4-benzoylphenyl)propanamido)-6-((amino(iminio)methyl)amino)hexanamido)-3-amino-3-oxopropyl)benzenaminium] (Ac-[Bpa]-[hArg]-[Phe(4-NH2)]-NH2) |  |  | protects the toxic effects of T30 by reducing calcium influx | significant effect on basal forebrain population activity; also recorded: reversal of the inhibitory effect of T30; also recorded: increase in network activity; also recorded: protective role of Tri04 over T30 | totally block the T30-induced effects; also recorded: recapitulates results previously seen with the application of 4 μM NBP14; also recorded: significant effect reversing T30 activity | better stability than TRI-02 | better stability than TRI-02 | some degradants were still detected |  |  |  |  |
| CC(=O)N[C@@H](Cc1ccc2ccccc2c1)C(=O)N[C@@H](Cc1ccc(N)cc1)C(=O)N[C@@H](Cc1c[nH]c2ccccc12)C(N)=O [Tri02, 4-((S)-2((S)-2-acetamido-3-(naphthalene-2-yl)propanamido)-3-(((S)-1-amino-3-(1H-indol-3-yl)-1-oxopropan-2-yl)amino)-3-oxopropyl)benzenaminium] (Ac-[2Nal]-[Phe(4-NH2)]-Trp-NH2) |  |  | protects against the toxic effects of T30 |  |  | some instability | some instability | a variety of degradants were detected | protects against the toxic effects of T30 | a variety of degradants were detected | not found to protect against T30-induced deviations from baseline; also recorded: some efficacy in blocking those T30-induced deviation | recapitulates results seen with application of 4 μM NBP14; also recorded: small alterations |
